From patent US4323547A, “Labeled fatty acids and method of making and using same” (priority 1978, dated 1982)

Key:
[1] = tested on: heart muscle; assay: Heart muscle uptake and elimination of radiolabelled fatty acids after tail vein injection in mice; assay type: in vivo, NMRI mice
Description: (§1) Animal experiments with mice were carried out using the product resulting from the high pressure liquid chromatographic purification after evaporation of the eluate to dryness in a rotary evaporator and the dissolution of the product in human serum albumin. The solution is filtered and injected in aliquot portions to the tail vein of each animal.
(§2) The following table assembles the results of comparative tests with the compounds of the invention and prior art compounds: […]

[2] = as above; assay type: in vivo, NMRI mice; details: mouse, in vivo, iv; for tissue uptake at 2 min: NMRI mice, tail vein injection in human serum albumin, read-out: maximum 18F activity in the heart muscle
Description: as §1, §2

[3] = comparative tests, table 2, heart
[4] = NMRI mice, tail vein injection in human serum albumin

Row | Compound | Max. Enrichment in % of Injected Dose per Heart ([1]; comparative tests, table 2) | Elimination Half-time, rapid elimination [1, 3] [min] | Elimination Half-time, slow elimination [1, 3] [min] | Time to Max. Enrichment [1, 3] [min] | Max. Enrichment in % of Injected Dose per Heart ([1]; mouse, in vivo) | Elimination Half-time, rapid elimination ([1]; mouse, in vivo, iv) [min] | Elimination Half-time, slow elimination ([1]; mouse, in vivo, iv) [min] | Time to Max. Enrichment ([1]; mouse, in vivo, iv) [min] | tissue uptake at 2 min [2] [%ID/g] | dropoff of heart activity, long-duration component [1, 4] | dropoff of heart activity, short-duration component [1, 4] | time within which the activity reaches a maximum in heart muscle [1, 4] | maximum 18F activity in the heart muscle ([1]; NMRI mice, tail vein injection in human serum albumin, 2 min) | tissue uptake ([2]; general description, read-out: maximum pickup in heart muscle) [%ID/g]
1 | O=C(O)CCCCCCCCCCCCCCCC[34Cl] [17-^34m Cl-Heptadecanoic acid] | 2.16 ± 0.6 % of Injected Dose per Heart | 0.9 ± 0.2 | 23 ± 4.7 | 0.25 | – | – | – | – | – | – | – | – | – | –
2 | CCCCCCCCCCCCCCCCC([123I])C(=O)O (stereo not shown) [2-^123 I-Stearic acid] | – | – | – | – | 1.411 ± 0.1 % of Injected Dose per Heart | 2 ± 0.4 | 13 ± 2.7 | 0.5 to 1 | – | – | – | – | – | –
3 | CCCCCCCCCCCCCCCCC([77Br])C(=O)O (stereo not shown) [2-^77 Br-Stearic acid] | – | – | – | – | 1.47 ± 0.3 % of Injected Dose per Heart | 1 ± 0.2 | 18 ± 3.6 | 1 | – | – | – | – | – | –
4 | O=C(O)CCCCCCCCCCCCCCC[18F] [16-^18 F-Palmitic acid, 16-^18 F hexadecanoic acid] | 4.35 ± 1.3 % of Injected Dose per Heart | 3 ± 0.8 | 44 ± 11 | 0.25 | – | – | – | – | ~40 | eighteen to fifty-one | two to six | two | – | –
5 | O=C(O)CCCCCCCCCCCCCCCC[77Br] [17-^77 Br-Heptadecanoic acid] | – | – | – | – | 2.210 ± 0.6 % of Injected Dose per Heart | 0.6 ± 0.1 | 36 ± 7.2 | 0.5 | – | – | – | – | – | –
6 | CCCCCCCCCCCCCCCCC([18F])C(=O)O (stereo not shown) [2-^18 F-Stearic acid] | 1.34 ± 0.1 % of Injected Dose per Heart | 0.5 ± 0.1 | 5 ± 1.5 | 1 | – | – | – | – | – | – | – | – | – | –
7 | O=C(O)CCCCCCCCCCCCCCCC[123I] [17-^123 I-Heptadecanoic acid] | – | – | – | – | 3.97 ± 0.4 % of Injected Dose per Heart | 2.1 ± 0.4 | 25 ± 5.0 | 0.25 | – | – | – | – | – | –
8 | CCCCCCCCCCCCCCC[11C](=O)O [1-[^11 C] Palmitic acid] | 3.87 ± 1.0 % of Injected Dose per Heart | – | 33 ± 6.5 | 0.25 | – | 0.4 ± 0.1 | – | – | – | – | – | – | – | –
9 | (9/10)-^18 F-stearic acid [9/10-^18 F-Stearic acid] | 4.25 ± 0.9 % of Injected Dose per Heart | 4 ± 1 | 24 ± 7 | 0.5 | – | – | – | – | – | eighteen to fifty-one | two to six | two | about 40 % gram (heart) | –
10 | O=C(O)CCCCCCCCCCCCCCCC[18F] [17-^18 F-Heptadecanoic acid] | 4.812 ± 0.8 % of Injected Dose per Heart | 6 ± 1.5 | 18 ± 6 | 0.5 | – | – | – | – | ~40 | eighteen to fifty-one | two to six | two | – | ~40
11 | CCCCCCCCCCCCCCCCC([34Cl])C(=O)O (stereo not shown) [2-^34m Cl-Stearic acid] | – | – | – | – | 2.03 ± 0.1 % of Injected Dose per Heart | 0.9 ± 0.2 | 9 ± 1.8 | 1 | – | – | – | – | – | –
12 | O=C(O)CCCCCCCCCCCCCCC[123I] [16-^123 I-Palmitic acid] | – | – | – | – | 3.36 ± 0.4 % of Injected Dose per Heart | 2.4 ± 0.5 | 33 ± 6.6 | 0.5 | – | – | – | – | – | –
